# Experimental data reported in patent US20250339391A1, “METHODS FOR EFFECTIVE MANAGEMENT OF PAIN” (South Rampart Pharma, Inc., priority 2024, published 2025).
# Assay: LC-MS/MS detection of D10-SRP-001 in rat brain (PAG)
# Type: in vivo
# Settings: 30 min after IP injection
# Experimental: Deuterated compound D10-SRP-001 was synthesized by Olon Ricerca Bioscience (Concord, OH), and purity was determined to be >99.9% by HPLC. This was used as pure analytical standard for detection of SRP-001 using an LC-MS/MS method. Similarly, pure analytical standard of AM404 (10 ng/mL) obtained from Cayman Chemical (Ann Arbor, MI) was used to characterize the full fragmentation pattern of AM404. […] Thirty min post-injection, the animals were sacrificed (same as in the CFA/von Frey model), their brains harvested, and the midbrain periaqueductal gray (PAG) region excised. SRP-001 or AM404 were extracted from the PAG using a liquid-liquid extraction method using 1:1 MeOH:H2O for LC-MS/MS and were loaded onto a liquid chromatography-tandem mass spectrophotometer for analysis. The mass spectrophotometer was operated in multiple reaction monitoring (MRM) mode using positive ion electrospray. D10-SRP-001 was detected by monitoring the m/z transition 416→186. AM404 was detected by monitoring the m/z transition 396→287.
smiles,measurement,value
[2H]C([2H])([2H])C([2H])([2H])N(C(=O)c1ccccc1S(=O)(=O)NCC(=O)Nc1ccc(O)cc1)C([2H])([2H])C([2H])([2H])[2H] [D10-SRP-001],detection in the brain,detected in the brain
